The values that follow come from ChEMBL document CHEMBL1201862, “PubChem BioAssay data set” (2004).

Among the test systems are COLO 205; HCT-15; HL-60; HT-29; NCI-H226; NCI-H460; NCI/ADR-RES; OVCAR-3; OVCAR-4; SF-268; SK-MEL-5; SK-OV-3; SR; T47D; TK-10; U-251; A498; HOP-92; SW-620.
Common to all, as to assay: NCI anticancer screen, dose series, 48 h

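96-well plates; 48 h exposure; 5 concentrations. Endpoints by linear interpolation between flanking doses. Not reached: highest tested concentration assigned. The concentration for 50% growth inhibition is given as GI50.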 Activity calls are given as the source filed them. Rule as the data show it: active = GI50 up to about 1.1 µM and inactive = higher.

For `O=c1[nH]c(=O)n(C2CC(O)C(CO)O2)cc1OCCc1ccccc1` (stereo unspecified), the GI50 in the assay on COLO 205 is > 100 µM (inactive); with HCT-15 it was greater than 100 µM; in the assay with HL-60 it was > 100 µM (inactive); in the assay on HT-29, > 100 µM (inactive); in the assay on NCI-H226, > 100 µM (inactive); in the assay on NCI-H460, > 10 µM (inactive). The GI50 in the assay with NCI/ADR-RES, with OVCAR-3, with OVCAR-4, in the assay with SF-268, with SK-MEL-5 and with SK-OV-3 was > 100 µM (inactive) in each case. Also, the GI50 with SR, in the assay on T47D, in the assay with TK-10 and in the assay on U-251 was > 100 µM (inactive) throughout.
As for `CCOC(=O)/C=C(\C(=O)OCC)n1cc(C)c(=O)n(Cc2cnnn2COCCOC(C)=O)c1=O`, the GI50 was 20.8 µM (inactive) in the assay on A498; 2.07 µM (inactive) in the assay with COLO 205; 3.44 µM in the assay with HCT-15; 3.15 µM (inactive) with HL-60; 1.92 µM (inactive) in the assay on HOP-92; 8.59 µM (inactive) with HT-29. Further, the GI50 was 9.59 µM (inactive) in the assay on NCI-H226; 11.9 µM (inactive) in the assay on NCI-H460; 16.1 µM (inactive) in the assay with NCI/ADR-RES; 11.7 µM (inactive) with OVCAR-3; 15.6 µM (inactive) in the assay on OVCAR-4; 15.5 µM (inactive) with SF-268. The GI50 was 19.7 µM (inactive) in the assay on SK-MEL-5; 55.7 µM (inactive) with SK-OV-3; 2.18 µM (inactive) in the assay with SW-620; 5.78 µM (inactive) in the assay on T47D; 4.91 µM (inactive) in the assay on TK-10; 17.7 µM (inactive) in the assay on U-251.
With `CC(=O)OC[C@@]12CC[C@H]3C(C)(C)CCC[C@]3(C)[C@H]1C[C@@H](C1=CC(=O)O[C@H]1O)O2`, the GI50 in the assay with COLO 205 was 3.81 µM (inactive); in the assay with HCT-15, 2.05 µM; in the assay with HT-29, 2.52 µM (inactive); in the assay with NCI-H460 it was 8.69 µM (inactive); with NCI/ADR-RES, 4.5 µM (inactive); with OVCAR-3, 2.1 µM (inactive). Also, the GI50 with SF-268 was 10.4 µM (inactive); in the assay with SK-MEL-5, 2.8 µM (inactive); with SR it was 0.625 µM (active); with SW-620, 4.81 µM (inactive); with T47D, 2.59 µM (inactive); with TK-10 it was 3.94 µM (inactive).
Regarding `OCCN(CCO)c1ccc2c(-c3ccccc3)cc(N(CCO)CCO)nc2n1`, the GI50 in the assay on A498 was 54.2 µM (inactive); in the assay with COLO 205, > 100 µM (inactive); in the assay with HCT-15, greater than 100 µM; with HT-29, > 100 µM (inactive); in the assay with NCI-H226, > 100 µM (inactive); in the assay on NCI-H460 it was > 100 µM (inactive). Also, the GI50 with NCI/ADR-RES, with OVCAR-3, with OVCAR-4, in the assay with SF-268, in the assay with SK-MEL-5 and with SK-OV-3 was > 100 µM (inactive) throughout. The GI50 with SR is 20 µM (inactive); with SW-620, > 100 µM (inactive); in the assay with T47D, > 100 µM (inactive); with TK-10 it was > 100 µM (inactive); with U-251 it was > 100 µM (inactive).
For `O=C(Nc1nnc(-c2ccccc2)o1)C(SC(=S)N1CCOCC1)c1ccccc1` (stereo unspecified), the GI50 is 23.8 µM (inactive) in the assay with A498; 35.6 µM (inactive) in the assay on COLO 205; 5.43 µM with HCT-15; 12.3 µM (inactive) with HL-60; 26.4 µM (inactive) in the assay with HT-29; 34.4 µM (inactive) in the assay on NCI-H226. In addition, the GI50 in the assay on NCI-H460 is 10.1 µM (inactive); in the assay on NCI/ADR-RES it was 14.6 µM (inactive); with OVCAR-3, 15 µM (inactive); with OVCAR-4, 34 µM (inactive); with SK-MEL-5, 15.7 µM (inactive); in the assay on SK-OV-3, 42.9 µM (inactive). Besides, the GI50 was 9.75 µM (inactive) in the assay on SR; 42.5 µM (inactive) in the assay on SW-620; 39.8 µM (inactive) in the assay with T47D; 51.6 µM (inactive) in the assay with TK-10; 18.6 µM (inactive) in the assay with U-251.
Take `Cc1csc(NNC(=O)Nc2ccccc2)n1`: the GI50 in the assay with A498 was > 100 µM (inactive); in the assay with COLO 205, > 100 µM (inactive); in the assay with HCT-15, greater than 100 µM; with HL-60, > 100 µM (inactive); in the assay on HT-29 it was > 100 µM (inactive); with NCI-H226, > 100 µM (inactive). The GI50 in the assay on NCI-H460, in the assay on NCI/ADR-RES, in the assay with OVCAR-4, with SF-268, with SK-MEL-5 and in the assay on SK-OV-3 was > 100 µM (inactive) each time. Further, the GI50 in the assay on SR, with SW-620, in the assay with T47D and with U-251 was > 100 µM (inactive) in each case.
As to `CC(C)Oc1c(C2(c3ccccc3)SCCCS2)c(=O)c1=O`, the GI50 in the assay on A498 was > 100 µM (inactive); in the assay on COLO 205, > 100 µM (inactive); with HCT-15, greater than 100 µM; in the assay on HL-60 it was > 100 µM (inactive); with HOP-92, > 100 µM (inactive); in the assay on HT-29, > 100 µM (inactive). The GI50 with NCI-H226, in the assay on NCI-H460, in the assay with NCI/ADR-RES, in the assay on OVCAR-3, in the assay on OVCAR-4 and with SF-268 was > 100 µM (inactive) each time. Also, the GI50 in the assay with SK-MEL-5, in the assay on SK-OV-3, with SW-620, with T47D, in the assay on TK-10 and with U-251 was > 100 µM (inactive) in each case.
As for `Cc1c(/N=N/c2ccccc2)c(-c2ccccc2)n(C2OC(CO)C(O)C(O)C2O)c(=S)c1C#N` (stereo unspecified), the GI50 in the assay with A498 was 14.4 µM (inactive); in the assay on COLO 205, 5.56 µM (inactive); with HCT-15 it was 5.01 µM; with HL-60, 3.66 µM (inactive); in the assay with HT-29 it was 6.59 µM (inactive); in the assay on NCI-H226, 10.8 µM (inactive). Besides, the GI50 with NCI-H460 was 10.6 µM (inactive); in the assay with NCI/ADR-RES, 17.3 µM (inactive); in the assay on OVCAR-3, 4.56 µM (inactive); with OVCAR-4, 6.1 µM (inactive); in the assay on SF-268, 8.38 µM (inactive); with SK-MEL-5 it was 2.33 µM (inactive). Also, the GI50 was 11.1 µM (inactive) in the assay with SK-OV-3; > 100 µM (inactive) in the assay on SR; 4.97 µM (inactive) in the assay on SW-620; 0.245 µM (active) in the assay with T47D; 9.29 µM (inactive) with TK-10; 4.08 µM (inactive) in the assay with U-251.
As for `Cc1cc2nc(N3C(=O)/C(=C/c4cccc([N+](=O)[O-])c4)N=C3c3ccccc3)sc2cc1C`, the GI50 with COLO 205 is 36.3 µM (inactive); with HCT-15, 36.5 µM; with HL-60, 19.8 µM (inactive); in the assay with HOP-92, 6.7 µM (inactive); in the assay with HT-29, 27.5 µM (inactive); in the assay on NCI-H460, 29.2 µM (inactive). The GI50 in the assay on NCI/ADR-RES is 28.4 µM (inactive); in the assay on OVCAR-3 it was 32 µM (inactive); in the assay on OVCAR-4, 25.8 µM (inactive); in the assay on SF-268 it was 25.9 µM (inactive); in the assay on SK-MEL-5 it was 30.1 µM (inactive); with SK-OV-3 it was 67.8 µM (inactive). Also, the GI50 was 14.9 µM (inactive) with SR; 27 µM (inactive) in the assay with SW-620; 27.1 µM (inactive) in the assay with T47D; 71.1 µM (inactive) in the assay with TK-10; 22.8 µM (inactive) in the assay with U-251.
`COc1ccc(/N=N/c2c(C)c(C#N)c(=S)n(C3OC(CO)C(O)C(O)C3O)c2-c2ccccc2)cc1` (stereo unspecified): the GI50 was 20.9 µM (inactive) in the assay on A498; 47.5 µM (inactive) with COLO 205; 34 µM with HCT-15; 58.2 µM (inactive) in the assay with HL-60; 32.5 µM (inactive) in the assay with HT-29; 31.3 µM (inactive) with NCI-H460. Moreover, the GI50 with NCI/ADR-RES is 93.1 µM (inactive); in the assay with OVCAR-3 it was 24.7 µM (inactive); in the assay on OVCAR-4, 31.9 µM (inactive); in the assay with SF-268, 44.9 µM (inactive); in the assay with SK-MEL-5, 11.5 µM (inactive); in the assay on SK-OV-3, 27.2 µM (inactive). The GI50 in the assay on SR was 32.1 µM (inactive); with SW-620 it was 26.1 µM (inactive); with T47D it was 27.1 µM (inactive); with TK-10 it was 39.5 µM (inactive); in the assay on U-251 it was 29 µM (inactive).
Turning to `COC1=C(OC)C(=O)C(Cc2c(C)nc3sccn23)=C(C)C1=O`, the GI50 was 14.9 µM (inactive) with A498; 12.6 µM (inactive) with COLO 205; 16.5 µM with HCT-15; 16.4 µM (inactive) in the assay on HT-29; 20 µM (inactive) in the assay with NCI-H460; 14.4 µM (inactive) with NCI/ADR-RES. The GI50 in the assay with OVCAR-3 is 15 µM (inactive); in the assay with OVCAR-4 it was 2.92 µM (inactive); in the assay with SF-268, 18.8 µM (inactive); in the assay on SK-MEL-5 it was 4.68 µM (inactive); in the assay on SK-OV-3 it was 13.7 µM (inactive); with SR, 14.5 µM (inactive). Besides, the GI50 was 14.8 µM (inactive) with SW-620, 18.2 µM (inactive) in the assay with T47D, 16.4 µM (inactive) with TK-10 and 15.6 µM (inactive) in the assay with U-251.
On to `Clc1cc2nn(C3CCCCO3)nc2cc1Cl` (stereo unspecified), for which the GI50 was > 100 µM (inactive) in the assay on COLO 205; greater than 100 µM in the assay on HCT-15; > 100 µM (inactive) in the assay with HT-29; > 100 µM (inactive) with NCI-H226; > 100 µM (inactive) in the assay on NCI-H460; > 100 µM (inactive) in the assay on NCI/ADR-RES. Moreover, the GI50 in the assay with OVCAR-3, in the assay with OVCAR-4, with SK-MEL-5, with SK-OV-3, in the assay on SR and in the assay with T47D was > 100 µM (inactive) in each case. Further, the GI50 with TK-10 and in the assay on U-251 was > 100 µM (inactive) in each case.
